Assay results taken from ChEMBL document CHEMBL3875185, “Structure-anticonvulsant activity studies in the group of (E)-N-cinnamoyl aminoalkanols derivatives monosubstituted in phenyl ring with 4-Cl, 4-CH3 or 2-CH3” (Bioorg Med Chem, 2017).
Activity calls are given as the source filed them. The calls are words filed in the database; no cut-off is given here.

Experiments:
CHO = experiment: Displacement of [3H]methyl-spiperone from human recombinant dopamine D4.4 receptor expressed in CHO cells at 100 uM measured after 60 mins by scintillation counting method relative to control; type: cell-based
[1] = target: Prostaglandin E2 receptor EP2 subtype (Homo sapiens) (UniProt P43116); experiment: Displacement of [3H]PGE2 from human recombinant EP2 receptor expressed in HEK293 cells at 100 uM measured after 120 mins by scintillation counting method relative to control; type: cell-based
Chain of Prostaglandin E2 receptor EP2 subtype (Homo sapiens) (P43116 whole entry): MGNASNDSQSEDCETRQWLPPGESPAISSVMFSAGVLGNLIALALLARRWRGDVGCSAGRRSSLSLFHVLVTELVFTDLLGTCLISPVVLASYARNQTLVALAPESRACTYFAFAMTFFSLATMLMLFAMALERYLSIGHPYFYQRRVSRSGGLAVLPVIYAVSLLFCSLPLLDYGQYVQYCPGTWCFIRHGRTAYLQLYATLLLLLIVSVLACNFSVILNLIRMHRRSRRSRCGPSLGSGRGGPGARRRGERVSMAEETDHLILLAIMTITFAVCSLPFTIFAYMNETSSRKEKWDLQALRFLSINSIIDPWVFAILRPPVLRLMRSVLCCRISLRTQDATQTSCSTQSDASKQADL

Mus musculus [2] = experiment: Anticonvulsant activity in ip dosed 6-Hz induced seizure mouse model assessed as restoration of normal activity within 10 secs from stimulation by measuring time to peak effect at 32 mA; type: functional
[3] = target: T1, Endothelin receptor type B (Homo sapiens) (UniProt P24530); experiment: Displacement of [125I]endothelin-1 from human recombinant ETB receptor expressed in CHO cells at 100 uM measured after 120 mins by scintillation counting method relative to control; type: cell-based
T1 sequence (whole entry): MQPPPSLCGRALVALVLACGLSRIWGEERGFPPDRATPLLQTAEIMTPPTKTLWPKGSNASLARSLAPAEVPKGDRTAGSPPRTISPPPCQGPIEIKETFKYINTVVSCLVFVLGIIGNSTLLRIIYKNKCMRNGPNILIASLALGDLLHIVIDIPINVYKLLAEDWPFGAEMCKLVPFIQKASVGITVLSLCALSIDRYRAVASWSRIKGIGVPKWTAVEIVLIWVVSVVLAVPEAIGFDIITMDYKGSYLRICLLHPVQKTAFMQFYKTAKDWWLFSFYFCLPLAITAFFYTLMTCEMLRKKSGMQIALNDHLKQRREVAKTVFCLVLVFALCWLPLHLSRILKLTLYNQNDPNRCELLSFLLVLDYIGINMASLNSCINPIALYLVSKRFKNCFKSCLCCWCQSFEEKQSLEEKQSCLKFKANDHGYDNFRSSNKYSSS

Mus musculus [4] = experiment: Anticonvulsant activity in ip dosed maximal electroshock induced seizure mouse model assessed as suppression in hindlimb tonic extension by measuring time to peak effect; type: functional
[5] = Neurotoxicity in ip dosed Sprague-Dawley rat assessed as behavioral change; type: toxicity, organism-based; conditions: in vivo
Rattus norvegicus [6] = experiment: Anticonvulsant activity in po dosed maximal electroshock induced seizure Sprague-Dawley rat model assessed as suppression in hindlimb tonic extension by measuring time to peak effect; type: functional
Rattus norvegicus [7] = experiment: Neurotoxicity in Sprague-Dawley rat assessed as behavioral change at 30 mg/kg, po measured at 4 hrs post dose; type: toxicity, organism-based; conditions: in vivo
[8] = target: T2, 5-hydroxytryptamine receptor 2C (Homo sapiens) (UniProt P28335); experiment: Displacement of [3H]mesulergine from human recombinant 5HT2C receptor expressed in HEK293 cells at 100 uM measured after 120 mins by scintillation counting method relative to control; type: cell-based
T2 sequence (whole entry): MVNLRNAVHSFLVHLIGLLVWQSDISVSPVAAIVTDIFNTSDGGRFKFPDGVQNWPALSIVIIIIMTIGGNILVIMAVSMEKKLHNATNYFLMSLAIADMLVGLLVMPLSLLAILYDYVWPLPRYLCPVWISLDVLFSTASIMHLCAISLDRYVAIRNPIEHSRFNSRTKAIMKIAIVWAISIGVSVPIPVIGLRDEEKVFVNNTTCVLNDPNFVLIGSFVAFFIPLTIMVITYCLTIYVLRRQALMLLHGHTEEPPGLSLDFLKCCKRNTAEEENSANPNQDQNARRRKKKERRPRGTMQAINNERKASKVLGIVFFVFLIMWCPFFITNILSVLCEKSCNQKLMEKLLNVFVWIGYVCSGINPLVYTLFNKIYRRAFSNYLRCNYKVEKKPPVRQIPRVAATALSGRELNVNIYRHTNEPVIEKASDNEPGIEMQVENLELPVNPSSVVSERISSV

[9] = target: D(2) dopamine receptor (Homo sapiens) (UniProt P14416); experiment: Displacement of [3H]methyl-spiperone from human recombinant dopamine D2S receptor expressed in HEK293 cells at 100 uM measured after 60 mins by scintillation counting method relative to control; type: cell-based
Chain of D(2) dopamine receptor (Homo sapiens) (P14416 whole entry): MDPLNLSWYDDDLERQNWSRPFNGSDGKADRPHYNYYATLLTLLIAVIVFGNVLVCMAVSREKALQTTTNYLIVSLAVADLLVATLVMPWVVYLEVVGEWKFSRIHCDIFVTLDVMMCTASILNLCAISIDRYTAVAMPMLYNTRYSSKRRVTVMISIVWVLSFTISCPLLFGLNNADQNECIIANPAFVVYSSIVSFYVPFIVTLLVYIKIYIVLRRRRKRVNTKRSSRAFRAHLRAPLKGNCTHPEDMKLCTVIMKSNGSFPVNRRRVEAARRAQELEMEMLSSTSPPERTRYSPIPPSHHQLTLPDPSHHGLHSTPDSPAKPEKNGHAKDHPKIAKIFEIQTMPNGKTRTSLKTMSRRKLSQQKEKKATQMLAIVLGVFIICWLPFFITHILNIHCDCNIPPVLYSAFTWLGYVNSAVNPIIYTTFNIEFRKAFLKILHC

Rattus norvegicus [10] = experiment: Anticonvulsant activity in ip dosed pentylenetetrazole induced seizure Sprague-Dawley rat model assessed as no observable episode of clonic convulsion of at least 5 secs; type: functional
Mus musculus [11] = experiment: Anticonvulsant activity in 6-Hz induced seizure mouse model assessed as restoration of normal activity within 10 secs from stimulation at 100 mg/kg, ip at 32 mA measured at […] post dose; type: functional, organism-based
Rattus norvegicus [12] = organism: Rattus norvegicus; experiment: Displacement of [3H]TCP from rat cerebral cortex phencyclidine receptor at 100 uM measured after 120 mins by scintillation counting method relative to control
[13] = target: Cannabinoid receptor 1 (Homo sapiens) (UniProt P21554); experiment: Displacement of [3H]CP 55940 from human recombinant CB1 receptor expressed in CHO cells at 100 uM measured after 120 mins by scintillation counting method relative to control; type: cell-based
Chain of Cannabinoid receptor 1 (Homo sapiens) (P21554 whole entry): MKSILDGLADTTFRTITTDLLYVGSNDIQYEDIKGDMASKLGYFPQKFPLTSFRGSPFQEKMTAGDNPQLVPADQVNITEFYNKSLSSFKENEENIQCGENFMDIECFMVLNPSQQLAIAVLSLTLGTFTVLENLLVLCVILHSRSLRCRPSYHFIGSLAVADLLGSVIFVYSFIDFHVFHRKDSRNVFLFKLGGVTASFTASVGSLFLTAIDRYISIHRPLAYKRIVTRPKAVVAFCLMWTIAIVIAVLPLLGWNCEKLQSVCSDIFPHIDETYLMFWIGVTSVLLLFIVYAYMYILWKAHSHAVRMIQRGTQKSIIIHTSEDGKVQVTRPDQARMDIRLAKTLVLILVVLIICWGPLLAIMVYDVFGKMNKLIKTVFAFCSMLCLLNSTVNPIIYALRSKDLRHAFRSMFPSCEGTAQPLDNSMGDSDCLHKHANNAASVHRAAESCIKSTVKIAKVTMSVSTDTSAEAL

[14] = target: 5-hydroxytryptamine receptor 5A (Homo sapiens) (UniProt P47898); experiment: Displacement of [3H]LSD from human recombinant 5HT5A receptor expressed in HEK293 cells at 100 uM measured after 120 mins by scintillation counting method relative to control; type: cell-based
Chain of 5-hydroxytryptamine receptor 5A (Homo sapiens) (P47898 whole entry): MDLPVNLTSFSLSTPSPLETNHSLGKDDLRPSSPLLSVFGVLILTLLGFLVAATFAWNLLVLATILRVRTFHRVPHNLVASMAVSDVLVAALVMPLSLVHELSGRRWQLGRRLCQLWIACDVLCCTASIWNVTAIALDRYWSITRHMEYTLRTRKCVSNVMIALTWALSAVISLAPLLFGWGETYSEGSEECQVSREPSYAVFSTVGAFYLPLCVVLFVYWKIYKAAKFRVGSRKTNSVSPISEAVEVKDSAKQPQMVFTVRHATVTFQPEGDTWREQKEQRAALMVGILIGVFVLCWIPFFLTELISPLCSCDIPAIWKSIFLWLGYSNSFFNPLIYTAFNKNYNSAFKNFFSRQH

[15] = target: 5-hydroxytryptamine receptor 1B (Rattus norvegicus) (UniProt P28564); experiment: Displacement of [125I]CYP from rat cerebral cortex 5HT1B receptor at 100 uM measured after 120 mins by scintillation counting method relative to control
Chain of 5-hydroxytryptamine receptor 1B (Rattus norvegicus) (P28564 whole entry): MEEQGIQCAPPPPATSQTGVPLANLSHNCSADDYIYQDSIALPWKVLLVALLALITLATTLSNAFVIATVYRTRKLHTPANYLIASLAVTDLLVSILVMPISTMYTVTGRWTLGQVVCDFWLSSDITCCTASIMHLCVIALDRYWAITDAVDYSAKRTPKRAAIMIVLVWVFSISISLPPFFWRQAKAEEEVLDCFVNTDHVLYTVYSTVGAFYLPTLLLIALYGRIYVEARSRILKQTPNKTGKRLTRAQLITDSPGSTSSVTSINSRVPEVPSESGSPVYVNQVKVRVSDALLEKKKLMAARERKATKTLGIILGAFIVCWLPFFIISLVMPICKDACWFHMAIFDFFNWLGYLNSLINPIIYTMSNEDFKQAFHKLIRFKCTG

[16] = target: 5-hydroxytryptamine receptor 2A (Homo sapiens) (UniProt P28223); experiment: Displacement of [3H]ketanserin from human recombinant 5HT2A receptor expressed in HEK293 cells at 100 uM measured after 60 mins by scintillation counting method relative to control; type: cell-based
Chain of 5-hydroxytryptamine receptor 2A (Homo sapiens) (P28223 whole entry): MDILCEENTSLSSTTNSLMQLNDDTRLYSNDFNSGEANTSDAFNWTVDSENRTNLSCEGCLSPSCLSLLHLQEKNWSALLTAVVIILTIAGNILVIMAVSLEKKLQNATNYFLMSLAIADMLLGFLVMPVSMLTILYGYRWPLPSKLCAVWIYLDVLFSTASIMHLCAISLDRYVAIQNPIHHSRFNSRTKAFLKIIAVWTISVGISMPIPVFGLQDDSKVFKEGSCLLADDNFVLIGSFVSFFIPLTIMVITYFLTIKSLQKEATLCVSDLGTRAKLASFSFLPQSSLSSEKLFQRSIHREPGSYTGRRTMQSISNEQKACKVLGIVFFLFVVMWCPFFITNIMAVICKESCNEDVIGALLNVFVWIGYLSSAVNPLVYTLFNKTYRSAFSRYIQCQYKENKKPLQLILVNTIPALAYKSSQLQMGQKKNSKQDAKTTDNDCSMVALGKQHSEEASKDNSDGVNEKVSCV

[17] = target: Delta-type opioid receptor (Homo sapiens) (UniProt P41143); experiment: Displacement of [3H]DADLE from human recombinant delta opioid receptor expressed in CHO cells at 100 uM measured after 120 mins by scintillation counting method relative to control; type: cell-based
Chain of Delta-type opioid receptor (Homo sapiens) (P41143 whole entry): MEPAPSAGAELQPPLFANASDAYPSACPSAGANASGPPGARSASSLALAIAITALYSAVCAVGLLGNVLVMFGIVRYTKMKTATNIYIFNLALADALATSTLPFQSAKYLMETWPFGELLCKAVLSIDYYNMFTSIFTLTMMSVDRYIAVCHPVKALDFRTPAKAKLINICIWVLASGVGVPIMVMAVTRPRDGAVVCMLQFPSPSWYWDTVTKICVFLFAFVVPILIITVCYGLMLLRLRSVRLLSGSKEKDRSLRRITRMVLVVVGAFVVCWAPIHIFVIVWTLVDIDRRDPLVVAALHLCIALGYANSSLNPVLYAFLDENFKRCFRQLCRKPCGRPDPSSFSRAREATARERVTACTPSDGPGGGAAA

Rattus norvegicus [18] = experiment: Neurotoxicity in ip dosed Sprague-Dawley rat assessed as behavioral change by measuring time to peak effect; type: toxicity, organism-based; conditions: in vivo
[19] = target: Nociceptin receptor (Homo sapiens) (UniProt P41146); experiment: Displacement of [3H]nociceptin from human recombinant NOP receptor expressed in HEK293 cells at 100 uM measured after 60 mins by scintillation counting method relative to control; type: cell-based
Chain of Nociceptin receptor (Homo sapiens) (P41146 whole entry): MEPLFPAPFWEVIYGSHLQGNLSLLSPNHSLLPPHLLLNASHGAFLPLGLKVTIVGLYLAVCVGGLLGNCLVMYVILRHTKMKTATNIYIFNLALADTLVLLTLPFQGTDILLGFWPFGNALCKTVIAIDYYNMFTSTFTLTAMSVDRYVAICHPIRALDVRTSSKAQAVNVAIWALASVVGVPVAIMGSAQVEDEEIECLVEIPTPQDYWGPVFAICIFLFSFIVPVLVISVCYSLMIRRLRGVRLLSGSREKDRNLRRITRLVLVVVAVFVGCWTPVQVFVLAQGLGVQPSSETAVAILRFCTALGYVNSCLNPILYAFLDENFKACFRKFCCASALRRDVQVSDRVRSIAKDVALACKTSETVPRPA

[20] = Protection index, ratio of TD50 for neurotoxicity in ip dosed mouse to ED50 for ip dosed pentylenetetrazole induced seizure mouse model; type: toxicity, organism-based; conditions: in vivo, read-out: Ratio TD50/ED50
Rattus norvegicus [21] = experiment: Neurotoxicity in Sprague-Dawley rat assessed as behavioral change at 30 mg/kg, po measured at 1 hr post dose; type: toxicity, organism-based; conditions: in vivo

| Compound | inhibition (CHO) | inhibition [1] | Time (Mus musculus [2]) | inhibition [3] | Time (Mus musculus [4]) | TD50 [5] | Time (Rattus norvegicus [6]) | Activity (Rattus norvegicus [7]) | inhibition [8] | inhibition [9] | ED50 (Rattus norvegicus [10]) | Activity (Mus musculus [11]) | inhibition (Rattus norvegicus [12]) | inhibition [13] | inhibition [14] | inhibition [15] | inhibition [16] | inhibition [17] | Time (Rattus norvegicus [18]) | inhibition [19] | other results |
| --- | --- | --- | --- | --- | --- | --- | --- | --- | --- | --- | --- | --- | --- | --- | --- | --- | --- | --- | --- | --- | --- |
| CCC(CO)NC(=O)/C=C/c1ccc(Cl)cc1 (stereo unspecified) | 30.6% | 57.6% | 0.25 h | -10% | 0.25 h | 79.5 mg/kg | 0.5 h | Non-Toxic | 24.5% | 1.8% | 64.4 mg/kg | Active | -2.2% | 11.5% | 18.7% | -1.5% | 19.3% | 6% | 1 h | -4.4% | selectivity ratio [20]: 2.18; Activity (Rattus norvegicus [21]): Non-Toxic |
| Cc1ccccc1/C=C/C(=O)N[C@@H](C)CO | 23.2% | 37.8% | 0.25 h | -8.2% | 0.25 h | 103 mg/kg | 1 h | Non-Toxic | 81.2% | 5% | 24.6 mg/kg | Active | 7.8% | 9.1% | 17.4% | 32.4% | 10.3% | 3% | 0.5 h | 2.2% | selectivity ratio [20]: 2.57; Activity (Rattus norvegicus [21]): Non-Toxic |
| CC(O)CNC(=O)/C=C/c1ccc(Cl)cc1 (stereo unspecified) | 28.2% | 29.7% | 0.5 h | -4.6% | 0.5 h | 69.8 mg/kg | 0.5 h | Non-Toxic | 23.4% | 8.7% | 56 mg/kg | Active | -5.5% | 4.7% | 19% | -3.2% | 12.2% | 3.2% | 0.5 h | 1.7% | selectivity ratio [20]: 1.76; Activity (Rattus norvegicus [21]): Non-Toxic |
